Source: US9115106B2, “Use of 5-hydroxy-2-hydroxymethyl-γ-pyrone (HMP) as a leishmanicidal agent” (UNIVERSIDADE FEDERAL DO PARA, priority 2008, dated 2015)
“And” between values parts separate entries of the source, which are not always exact repeats. Equal values may be shown once.

Experiments:
[1] = tested on: leukemia P388; settings: leukemia P388 in mice; cited from earlier work
[2] = water, ethanol, or acetone; cited from earlier work
[3] = ideal doses of consumption; no risk in doses of 0.03-0.06 mg/kg/day; cited from earlier work
[4] = tested on: thyroid; settings: continued administration of high doses, rats; cited from earlier work
[5] = tested on: tyrosinases 1 and 2; settings: Schistosoma mansoni eggs; cited from earlier work
[6] = tested on: melasma; settings: HMP added to trichloroacetic acid and glycolic acid mixture; cited from earlier work
[7] = tested on: bacteria (bacilos, Salmonella); settings: cited from earlier work
[8] = tested on: L. amazonensis amastigotes in infected macrophages; assay: Leishmanicidal activity on amastigotes during in vitro infection of macrophages; type: cell-based
Method: (§1) The peritoneal murine macrophage cells were cultured at 37° C. and 5% CO2 in Dulbecco's modified Eagle's medium (DMEM) supplemented with 10% heat-inactivated sterile filtered fetal bovine serum (FCS), 10 mM Hepes, pH 7.3, 100 U/mL penicillin and 100 µg/mL streptomycin (all from Gibco BRL/Life Technologies, Middlesex, UK). Cells were used after 24 hours of culture. L. amazonensis promastigotes were obtained from the Evandro Chagas Institute in NNN medium and maintained at 26° C. in RPMI1640 medium. Host cells were cultivated and infected or not with L. amazonensis, before treating or not with HMP at the same concentrations described previously.

[9] = tested on: peritoneal murine macrophage cells; assay: Morphological analysis of host cells by light, fluorescence and electron microscopy; type: cell-based; settings: treated cells compared with control cells
Method: (§2) The peritoneal murine macrophage cells were cultured at 37° C. and 5% CO2 in Dulbecco's modified Eagle's medium (DMEM) supplemented with 10% heat-inactivated sterile filtered fetal bovine serum (FCS), 10 mM Hepes, pH 7.3, 100 U/mL penicillin and 100 µg/mL streptomycin (all from Gibco BRL/Life Technologies, Middlesex, UK). Cells were used after 24 hours of culture. Firstly, morphological alterations were observed by light and fluorescence microscopy, as well as transmission and scanning electron microscopy in host cells, treated or not with 10, 20 and 50 μg/mL of HMP diluted in DMEM. Viability analyses performed by through Thiazolyl Blue (MTT) e Neutral Red (NR) assays.

[10] = estimated; cited from earlier work
[11] = tested on: bacteria from various genera; settings: Aerobacter, Bacillus, Escherichia, Staphylococcus and other genera; cited from earlier work
[12] = tested on: Leishmania promastigotes; assay: Leishmanicidal activity on promastigotes; type: cell-based, L. amazonensis; settings: 50 μg/mL
[13] = tested on: peritoneal murine macrophage cells; assay: Cellular viability by MTT and Neutral Red assays; type: cell-based; settings: 10, 20 and 50 μg/mL HMP in DMEM
Method: as §2, with “Firstly, morphological alterations were observed by light and fluorescence microscopy, as well as transmission and scanning electron microscopy in host cells, treated or not with 10, 20 and 50 μg/mL of HMP diluted in DMEM.” left out

[14] = tested on: rats; settings: cited from earlier work
[15] = tested on: host cells infected with L. amazonensis; assay: Superoxide production, histochemical assay with Nitro Blue Tetrazolium (NBT); type: cell-based, murine; settings: 50 μg/mL, compared with control cells
Method: as §1, with “culture.” for “culture. L. amazonensis promastigotes were obtained from the Evandro Chagas Institute in NNN medium and maintained at 26° C. in RPMI1640 medium.”

## O=c1cc(CO)occ1O [HMP, 5-hydroxy-2-hydroxymethyl-γ-pyrone]
[1]
  antitumoural activity: positive effects of antitumoural activity
[2]
  solubility: freely soluble
[3]
  toxic or genotoxic effects: does not contain toxic or genotoxic effects
[4]
  thyroid tumour induction: induction of thyroid adenomas
[5]
  inhibition of tyrosinase activity: inhibit the activity of tyrosinases 1 and 2
[6]
  effect on melasma treatment: improved treatment of melasma
[7]
  mutagenicity: evidence in the literature regarding the mutagenicity of HMP in bacteria
[8]; activating host cell microbicidal response
  minimal concentration with leishmanicidal activity: 50 µg/mL
[8]; cells treated with 50 μg/mL
  reduction in amastigotes during in vitro infection: 79%
[8]; parasites inside the macrophages
  effect on intracellular amastigote (ultrastructural observations): causing morphological alterations and death
[9]
  host cell activation (morphology): increase on actin filament polymerization and spreading
[10]
  pKa: 7.90 and 8.03
[11]
  antibacterial activity: inhibition of bacteria from various genera
[12]
  inhibition at 50 µg/mL: 68%
[13]
  cytotoxic effect by MTT and NR assays: not due to unspecific cytotoxic effect
[14]
  teratogenic effect: did not cause any teratogenic effect
[15]
  superoxide production (NBT): greater superoxide production
